Reference: PubChem BioAssay AID1918940 (Molecular Pharmacology Branch, DTP, NCI, 2023)

Test system: NCI-H211 complex spheroid viability
Assay: Anticancer human tumor NCI-H211 cell line growth inhibition [LSD1];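 further: luminescent viability read after seven days of drug exposure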;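 on viability, T/C: 100% = DMSO vehicle control viability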
Conditions: for IC50: curve of first compound; for viability, T/C: stronger effect = lower value
Procedure, shortened: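 Multicellular complex spheroids of tumor cells with human endothelial cells (HUVEC) and mesenchymal stem cells; the LSD1 inhibitor iadademstat was combined with standard-of-care or investigational agents. Top concentration at or near clinical Cmax, half-log dilutions; final DMSO ≤0.25%.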

[1] = second compound 0.1 µM, first compound 0.00316 µM
[2] = second compound 0.1 µM, first compound 0.01 µM
[3] = second compound 0.1 µM, first compound 0.0316 µM
[4] = second compound 0.1 µM, first compound 0.1 µM
[5] = second compound 0.316 µM, first compound 0.00316 µM
[6] = second compound 0.316 µM, first compound 0.01 µM
[7] = second compound 0.316 µM, first compound 0.0316 µM
[8] = second compound 0.316 µM, first compound 0.1 µM
[9] = second compound 1 µM, first compound 0.00316 µM
[10] = second compound 1 µM, first compound 0.01 µM
[11] = second compound 1 µM, first compound 0.0316 µM
[12] = second compound 1 µM, first compound 0.1 µM
[13] = second compound 3.16 µM, first compound 0.00316 µM
[14] = second compound 3.16 µM, first compound 0.01 µM
[15] = second compound 3.16 µM, first compound 0.0316 µM
[16] = second compound 3.16 µM, first compound 0.1 µM
[17] = second compound 10 µM, first compound 0.00316 µM
[18] = second compound 10 µM, first compound 0.01 µM
[19] = second compound 10 µM, first compound 0.0316 µM
[20] = second compound 10 µM, first compound 0.1 µM

SMILES | IC50 (second compound 0.1 µM) | IC50 (second compound 0.316 µM) | IC50 (second compound 1 µM) | IC50 (second compound 3.16 µM) | IC50 (second compound 10 µM) | viability, T/C [1] | viability, T/C [2] | viability, T/C [3] | viability, T/C [4] | viability, T/C [5] | viability, T/C [6] | viability, T/C [7] | viability, T/C [8] | viability, T/C [9] | viability, T/C [10] | viability, T/C [11] | viability, T/C [12] | viability, T/C [13] | viability, T/C [14] | viability, T/C [15] | further results
COc1cc(Nc2ncc3c(n2)-c2ccc(Cl)cc2C(c2c(F)cccc2OC)=NC3)ccc1C(=O)O + NC1CC1c1ccc(-c2cccc(O)c2)cc1 | < 3.16 nM | < 3.16 nM | < 3.16 nM | < 3.16 nM | < 3.16 nM | 28.2% | 5.72% | 4.04% | 3.29% | 37.7% | 6.96% | 3.41% | 4.23% | 33.4% | 6.82% | 3.89% | 4.49% | 21.8% | 7.56% | 4.05% | viability, T/C (second compound 0.1 µM, first compound 0.316 µM): 4.66%; viability, T/C (second compound 0.1 µM, first compound 1 µM): 3.94%; viability, T/C (second compound 0.316 µM, first compound 0.316 µM): 4.53%; viability, T/C (second compound 0.316 µM, first compound 1 µM): 3.46%; viability, T/C (second compound 1 µM, first compound 0.316 µM): 3.81%; viability, T/C (second compound 1 µM, first compound 1 µM): 3.95%; viability, T/C [16]: 3.76%; viability, T/C (second compound 3.16 µM, first compound 0.316 µM): 3.87%; viability, T/C (second compound 3.16 µM, first compound 1 µM): 3.54%; viability, T/C [17]: 21.8%; viability, T/C [18]: 6.88%; viability, T/C [19]: 4.59%; viability, T/C [20]: 4.93%; viability, T/C (second compound 10 µM, first compound 0.316 µM): 5.57%; viability, T/C (second compound 10 µM, first compound 1 µM): 4.21%
Cn1ncnc1C1c2n[nH]c(=O)c3cc(F)cc(c23)NC1c1ccc(F)cc1 (stereo not given) + NC1CC1c1ccc(-c2cccc(O)c2)cc1 | 1.85 nM | 1.66 nM | 1.05 nM | 1.08 nM | 1.02 nM | 36.7% | 6.78% | 5.16% | 5.28% | 28.5% | 6.02% | 5.46% | 4.84% | 23.6% | 6.16% | 4.68% | 4.9% | 26% | 6.88% | 5.03% | viability, T/C (second compound 0.1 µM, first compound 0.000316 µM): 64.8%; viability, T/C (second compound 0.1 µM, first compound 0.001 µM): 65.8%; viability, T/C (second compound 0.316 µM, first compound 0.000316 µM): 79.3%; viability, T/C (second compound 0.316 µM, first compound 0.001 µM): 66.8%; viability, T/C (second compound 1 µM, first compound 0.000316 µM): 51.5%; viability, T/C (second compound 1 µM, first compound 0.001 µM): 51.6%; viability, T/C (second compound 3.16 µM, first compound 0.000316 µM): 71.6%; viability, T/C (second compound 3.16 µM, first compound 0.001 µM): 50.8%; viability, T/C [16]: 5.16%; viability, T/C (second compound 10 µM, first compound 0.000316 µM): 48.5%; viability, T/C (second compound 10 µM, first compound 0.001 µM): 52.2%; viability, T/C [17]: 19.9%; viability, T/C [18]: 6.25%; viability, T/C [19]: 5.22%; viability, T/C [20]: 4.95%
